According to patent US6403831B1, “Substituted benzylidene indenyl formamides, acetamides and propionamides” (Cell Pathways, Inc., priority 1996, dated 2002):
Marks after values point to notes of the source that are not given here.

What was measured:
[1] = tested on: human colon carcinoma cell line, SW-480; test: Growth inhibition, Sulforhodamine B (SRB) protein binding assay; type: cell-based; conditions: SW-480 cell line, six days continuous exposure
Procedure, shortened: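 SW-480 cells at 1000 cells/well exposed continuously to compound for six days in RPMI with 5% FCS, 0.1% DMSO vehicle. Growth measured by sulforhodamine B staining and optical density relative to controls; IC50 read graphically from mean values, three wells per concentration.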

COX I = target: T1, COX I (Ovis aries, UniProt P05979); test: Cyclooxygenase (COX) inhibition, purified COX; type: biochemical; conditions: purified COX from ram seminal vesicles; for COX I % Inhibition (values marked *): values marked *: 1000 μM test compound; for COX I % Inhibition (100 μM): 100 μM test compound, arachidonic acid 100 μM
T1 construct: The COX was purified form ram seminal vesicles; from tissue; host or cells: ram seminal vesicles
T1 sequence (P05979 25-600): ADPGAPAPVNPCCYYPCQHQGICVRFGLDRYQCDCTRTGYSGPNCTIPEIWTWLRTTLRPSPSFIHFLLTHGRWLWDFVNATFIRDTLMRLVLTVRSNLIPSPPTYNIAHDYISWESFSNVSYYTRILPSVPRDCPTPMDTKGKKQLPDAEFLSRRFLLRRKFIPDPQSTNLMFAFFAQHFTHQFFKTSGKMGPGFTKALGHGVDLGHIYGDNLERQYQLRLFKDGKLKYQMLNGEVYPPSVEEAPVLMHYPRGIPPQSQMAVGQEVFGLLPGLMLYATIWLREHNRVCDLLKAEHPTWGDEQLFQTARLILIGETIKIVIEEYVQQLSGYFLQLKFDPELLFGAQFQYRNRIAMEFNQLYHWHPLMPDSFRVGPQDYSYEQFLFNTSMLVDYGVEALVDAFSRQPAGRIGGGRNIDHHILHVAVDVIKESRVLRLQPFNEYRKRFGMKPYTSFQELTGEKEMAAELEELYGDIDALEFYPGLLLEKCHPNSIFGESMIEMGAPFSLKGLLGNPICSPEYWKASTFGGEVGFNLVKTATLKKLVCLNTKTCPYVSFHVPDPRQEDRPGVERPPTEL
Procedure, shortened: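 Ram seminal vesicle COX, purified, was incubated 2.0 min at 37° C with 100 μM arachidonic acid with or without test compounds. Reactions stopped with TCA; activity read as absorbance at 530 nm.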

[2] = tested on: HT-29 human colon carcinoma cells; test: Apoptosis by morphology (acridine orange/ethidium bromide, condensed chromatin); type: cell-based; conditions: HT-29 cells
Description: Apoptosis was measured using an assay of cell death based on morphological characteristics of apoptotic cells (i.e., condensed chromatin). Drug preparation and cell culture conditions were the same as for the SRB assay described above, except that HT-29 human colon carcinoma cells were employed/Confluent cultures were established in 12.5 cm^2 flasks by plating 0.5×10^6 cells/flask. The cultures were assayed for apoptosis by fluorescent microscopy following labeling with acridine orange and ethidium bromide. Floating and attached cells were collected by trypsinization and washed three times in PBS. One ml aliquots were centrifuged (3 g). The pellet was resuspended in 25 μl media and 1 μl of a dye mixture containing 100 μg/ml acridine orange and 100 μg/ml ethidium bromide prepared in PBS and mixed gently. Ten μl of mixture was placed on a microscope slide and covered with a 22 mm^2 coverslip and examined under 40×dry objectives using epillumination and filter combination.
An observer blinded to the identity of the treatments scored at least 100 cells per sample. Apoptotic cells were identified by nuclear condensation of chromatin stained by the acridine orange or ethidium bromide.

[3] = tested on: SW-480 colon adenocarcinoma cells; test: Apoptosis by DNA fragmentation (Cell Death Detection ELISA plus); type: cell-based, human; conditions: SW-480 cells, 48 hrs; for EC50: by software or estimated from effective concentration range; for DNA Fragmentation FS (100 μM): fold stimulation FS=ODmax/ODveh
Description: Apoptosis was also measured based on the amount of fragmented DNA contained in cell lysates. Briefly, SW-480 colon adenocarcinoma cells were plated in 96-well microtitre plates (“MTP”) at a density of 10K cells/well in 180 μl and incubated for 24 hrs. Cells were then treated with 20 μl aliquots of appropriately diluted compound, and allowed to incubate for an additional 48 hrs.
After the incubation, samples were prepared according to the following steps. The MTP was centrifuged (15 min., 1000 rpm) and the supernatant was carefully removed by fast inversion of the MTP. The cell pellents in each well were then resuspended in ^200 μl lysis buffer and incubated for 45 min. at room temperature to lyse the cells. The lysates were then centrifuged (15 min., 1000 rpm) and 20 μl aliquots of the supernatant (=cytoplasmic fraction) were transferred into the streptavidin coated MTP for analysis. Care was taken not to shake the lysed pellets in the MTP (=cell nucleii containing high molecular weight, unfragmented DNA). Samples were analyzed immediately, because storage at 4 C or −20 C reduces the ELISA-signals.
Samples were then processed according to a DNA fragmentation assay protocol, and dose-response curves were generated based on optical density readings. Quantification of DNA was done by a commercially available photometric enzyme-immunoassay manufactured by Mannheim-Boehringer under the name “Cell Death Detection ELISA^plus”. The assay is based on a quantitative sandwich-enzyme-immunoassay-principle using mouse monoclonal antibodies directed against DNA and histones, respectively. This allows the specific determination of mono and oligonucleosomes in the cytoplasmatic fraction of cell lysates. In brief, the assay procedure is as follows. The sample (cell-lysate, serum, culture-supernatant etc.) is placed into a streptavidin-coated MTP. Subsequently, a mixture of anti-histone-biotin and anti-DNA-POD are added and incubated for 2 hours. During the incubation period, the anti-histone antibody binds to the histone-component of the nucleosomes and simultaneously fixes the immunocomplex to the streptavidin-coated MTP via its biotinylation. Additionally, the anti-DNA-POD antibody reacts with the DNA component of the nucleosomes. After removal of unbound antibodies by a washing step, the amount of nucleosomes is quantified by the POD retained in the immunocomplex. POD is determined photometrically with ABTS® (2,2′-Azino-di[3-ethylbenzthiazolin-sulfonat])* as substrate.
Fold stimulation (FS=ODmax/ODveh), an indicator of apoptotic response, was determined for each compound tested. EC50 values were determined either specifically by data analysis software, or by estimates based on the effective concentration range of each compound (ECR=min. effective dose-min. dose to peak effect). These FS and EC50 values for the tested compounds are listed above in Table 6.

SMILES | IC50 [1] | COX I % Inhibition (values marked *) (COX I) | Morphology % Apoptotic Cells (1 μM) [2] | EC50 [3] | DNA Fragmentation FS (100 μM) [3] | COX I % Inhibition (100 μM) (COX I)
COc1cc(/C=C2/C(C)=C(CC(=O)NCCc3ccccc3)c3cc(F)ccc32)cc(OC)c1OC [Example 39, (Z)-5-fluoro-2-methyl-1-(3,4,5-trimethoxybenzylidene)-3-(N-2-phenylethyl)-indenylacetamide] | > 10 µM | 59* % | 31% | > 10 µM | 2 | –
COc1cc(/C=C2/C(C)=C(CC(=O)NCCCc3ccccc3)c3cc(F)ccc32)cc(OC)c1OC [Example 40, (Z)-5-fluoro-2-methyl-1-(3,4,5-trimethoxybenzylidene)-3-(N-3-phenylpropyl)-indenylacetamide] | > 10 µM | 34* % | <20% | > 10 µM | <2 | –
COc1cc(/C=C2/C(C)=C(CC(=O)NCCCCc3ccccc3)c3cc(F)ccc32)cc(OC)c1OC [Example 41, (Z)-5-fluoro-2-methyl-1-(3,4,5-trimethoxybenzylidene)-3-(N-4-phenylbutyl)-indenylacetamide] | > 10 µM | 59* % | 30% | > 10 µM | <2 | –
COc1cc(/C=C2/C(C)=C(CC(=O)N[C@H](C)c3ccccc3)c3cc(F)ccc32)cc(OC)c1OC [Example 42, (Z)-5-fluoro-2-methyl-1-(3,4,5-trimethoxybenzylidene)-3-(N-(R)-1-phenethyl)-indenylacetamide] | 0.69 µM | 49* % | <20% | 3 µM | 3.8 | –
COc1cc(/C=C2/C(C)=C(CC(=O)N[C@@H](C)c3ccccc3)c3cc(F)ccc32)cc(OC)c1OC [Example 43, (Z)-5-fluoro-2-methyl-1-(3,4,5-trimethoxybenzylidene)-3-(N-(S)-1-phenylethyl)-indenylacetamide] | > 10 µM | 36* % | 25% | > 10 µM | <2 | –
COc1cc(/C=C2/C(C)=C(CC(=O)NCCCN(C)C)c3cc(F)ccc32)cc(OC)c1OC [Example 44, (Z)-5-fluoro-2-methyl-1-(3,4,5-trimethoxybenzylidene)-3-(N-3-dimethylaminopropyl)-idenylacetamide] | > 10 µM | 51* % | 25% | > 10 µM | 2.7 | –
COc1cc(/C=C2/C(C)=C(CC(=O)N[C@H](O)Cc3ccccc3)c3cc(F)ccc32)cc(OC)c1OC [Example 45, (Z)-5-fluoro-2-methyl-1-(3,4,5-trimethoxybenzylidene)-3-(N-(R)-1-hydroxy-2-phenylethyl)-idenylacetamide] | > 10 µM | 56* % | 40% | > 10 µM | 3.4 | –
COc1cc(/C=C2/C(C)=C(CC(=O)N[C@@H](O)Cc3ccccc3)c3cc(F)ccc32)cc(OC)c1OC [Example 46, (Z)-5-fluoro-2-methyl-1-(3,4,5-trimethoxybenzylidene)-3-(N-(S)-1-hydroxy-2-phenylethyl)-idenylacetamide] | > 10 µM | 98* % | 20% | > 10 µM | 4.8 | –
COc1cc(/C=C2/C(C)=C(CC(=O)N(Cc3ccccc3)C(C)O)c3cc(F)ccc32)cc(OC)c1OC (stereo not drawn) [Example 47, (Z)-5-fluoro-2-methyl-1-(3,4,5-trimethoxybenzylidene)-3-(N-benzyl-N-(1-hydroxyethyl))-idenylacetamide] | 4.1 µM | 37* % | 20% | 5.7 µM | 4.4 | –
COc1cc(/C=C2/C(C)=C(CC(=O)NCc3ccccn3)c3cc(F)ccc32)cc(OC)c1OC [Example 48] | 0.5 µM | – | 63% | 0.5 µM | 2.5 | <25%
COc1cc(/C=C2/C(C)=C(CC(=O)NCc3c(F)c(F)c(F)c(F)c3F)c3cc(F)ccc32)cc(OC)c1OC [Example 51, (Z)-5-fluoro-2-methyl-1-(3,4,5-trimethoxybenzylidene)-3-(N-pentafluorobenzyl)-idenylacetamlde] | 2.25 µM | <25* % | 40% | > 10 µM | <2 | –
COc1ccc(/C=C2/C(C)=C(CC(=O)NCc3ccccc3)c3cc(F)ccc32)c(OC)c1OC [Example 57, (Z)-5-fluoro-2-methyl-1-(2,3,4-trimethoxybenzylidene)-3-(N-benzyl)-indenylacetamide] | 0.26 µM | – | 73% | 0.3 µM | <2 | <25%
